Data reported in patent US20220332839A1, “USE OF PRG4 TO TREAT CANCER” (Lubris LLC, priority 2019, published 2022).

How the values were obtained:
[1] = test system: MDA-MB-231 cell-derived organoids; experiment: Three-dimensional Matrigel culture, proportion of spherical vs invasive organoids; format: cell-based, human; conditions: for TGFβ-induced invasive growth of organoids: rhPRG4 0.1, 10, 100 μg/mL, 4-MU 0.5 mM
Protocol: For three-dimensional culture assays, 50 μl of ice-cooled 33% growth factor-reduced Matrigel (Corning Incorporated, USA) in complete growth medium, consisting of DMEM containing 10% FBS, penicillin, streptomycin and amphotericin B (Invitrogen, Canada), was added per well of a 96-well flat bottom, ultra-low attachment plate (BD Biosciences, Canada) followed by storing the plate for 1 hour in a 5% CO2 humidified incubator at 37° C. to allow formation of a 1 mm-thick Matrigel bed in the well. Next, approximately 400 isolated MDA-MB-231 cells, suspended in 50 μl ice-cooled 50% Matrigel in complete growth medium, were layered on top of the Matrigel bed per well of the 96-well plate and incubated inside 5% CO2 humidified incubator at 37° C. One hour post addition and 37° C. incubation of Matrigel-cells suspension, 50 μl of complete growth medium was added to cover the solidified Matrigel-cells mixture. The following day and, every third day, the three-dimensional cultures received 50 μl of fresh complete growth medium without or with specified reagents as listed in the figure descriptions. On Day 8 of culture, differential interference contrast (DIC) images were captured of 8 representative organoids from each well, using light microscopy at 30× objective (Olympus IX70, Canada). […] Number of smooth surfaced organoids without any protrusions, designated as “spherical” were counted out of eight representative images in each well and then percentage of spherical organoids in each condition were plotted in bar graphs. Each experiment was performed at least three independent times for statistical analyses.

[2] = test system: HCC cells (HLE, HLF, PLC/DC/19, Hep3B, PLC/PRF/5); experiment: 72-hour proliferation assay, all HCC cells; format: cell-based, human; conditions: Homo sapiens, same experimental conditions
Protocol: (§1) Proliferation assay: In 100 μl complete medium, 3,000 cells were seeded in wells of a 96-well plate and left overnight to allow complete attachment. The next day (at time t=0 hours), the medium was removed and replaced with 100 μl of fresh medium in the presence/absence of Sorafenib (2.5 μM), Regorafenib (2.5 μM), rhPRG4 (12.5 to 100 μg/ml). Dimethyl sulfoxide (DMSO) and PBS+0.01% Tween-20 were used as vehicles of Sorafenib/Regorafenib, and rhPRG4, respectively. Cells in triplicate wells for each cell line were fixed at t=0 hours with 4% paraformaldehyde (PFA, pH 7.6, 10 min incubation), then stained with crystal violet (CV) and thoroughly washed to remove the excess staining. After 72 hours, the cells were fixed by adding 100 μl of 4% PFA directly to the medium (2% final PFA concentration, 20 min incubation), and processed for CV staining as previously described. Then, 100 or 200 μl of 1% sodium dodecyl-sulphate were added to the wells and the plates were left under shaking until complete CV release from stained cells. Optical density was at 595 nm wavelength measured using a plate reader.

CD44-shRNA HCC cells = experiment: 72-hour proliferation assay, CD44-silenced HCC cells; format: cell-based, human; conditions: 2.5 μM drug; rhPRG4 0 to 100 μg/ml; p<0.05 to p<0.001
Source text: Stable CD44 silencing: HLE and HLF cell lines were transduced with lentiviral particles carrying control non-targeting (V), or specific CD44-targeting shRNA sequences (A to D), and selected with puromycin dihydrochloride (Thermo Fisher Scientific) to obtain stable CD44 silencing, according to manufacturer instructions (OriGene Technologies, Inc., Rockville, Md. 20850, USA). Control-shRNA sequence (V) and CD44-shRNA sequence B were used in all the experiments involving CD44 downregulation.
as §1, with “After 72 hours, the cells were fixed by adding 100 μl of 4% PFA directly to the medium (2% final PFA concentration, 20 min incubation), and processed for CV staining as previously described. Then, 100 or 200 μl of 1% sodium dodecyl-sulphate were added to the wells and the plates were left under shaking until complete CV release from stained cells.” left out

lubricin (PRG4) mRNA = experiment: PRG4 mRNA expression in CAFs and ex vivo HCC specimens; format: cell-based, human
Protocol: RNA extraction and cDNA synthesis: […] of frozen ex-vivo treated HCC tissues were ground with a mortar-pestle in the presence of liquid nitrogen until a thin powder was obtained. The ground tissues were lysed with 0.5-1 ml of RLT buffer+1% (BME) and then processed according to the manufacturer's recommendations (RNeasy kit, Qiagen). […] The obtained RNA was assayed for quality and concentration using the NanoDrop 2000/2000c (Thermo Fisher Scientific). cDNA was synthetized using the High Capacity cDNA reverse transcription kit (Thermo Fisher Scientific), according to relative datasheet.
Real time PCR: One ng/μl of cDNA was used in total 20 μl reaction mix in the presence of 500 nM of each forward and reverse primer referred to a specific gene of interest, and 2×SYBR green master mix (Bio-Rad). The reaction was conducted in a CFX96 Touch Real-Time Detection System (Bio-Rad).
CAFs isolation: Immediately after surgical resection, HCC tumoral and peritumoral specimens were minced into 0.5-1 cm pieces and left in MACS Tissue Storage Solution (Miltenyi Biotec). The tissues were then further cut into smaller size pieces (1-2 mm), washed three times in Hanks balanced salt solution (HBSS), and then incubated in HBSS in the presence of type IV collagenase (Thermo Fisher Scientific) and 3 mM CaCl2 at 37° C. under gentle rotation for 4 hours. At the end of this step, the dissociation was mechanically facilitated by pipetting up-down the digested tissues with a large size orifice 50 ml pipette. The floating cells were collected and washed three times with HBSS and seeded in normal culture conditions in IMDM+20% FBS. The decanted, partially digested tissue specimens were subjected to a second round of digestion (as previously described). The resulting dissociated cells were washed with HBSS and cultured in IMDM+20% FBS. […] The presence of minimal contaminating non-fibroblastic cells (mostly cancerous hepatocytes, cholangiocytes and macrophages) was evaluated using antibodies to EpCAM, CD45, and CD11b.

CD44-IgG1Fc = target: T1, CD44-IgG1Fc (Homo sapiens, UniProt P16070); experiment: Direct ELISA: binding of coated macromolecules to CD44-IgG1Fc; conditions: for percentage binding to CD44 of enzyme-digested rhPRG4 compared to untreated control: coating 30 μg/mL, digestion 16 hours at 37° C.
T1 construct: purchased R & D systems
Protocol: High-binding microtiter plates (Corning, Sigma Aldrich, USA) were coated with rhPRG4 (Mr≅240 KDa), high molecular weight HA (HMW HA; Mr≅1,500 KDa) (R & D System, USA), medium molecular weight HA (MMW HA; Mr≅′300KDa) (R & D System) and vitronectin KDa) (Sigma Aldrich) at 400 μg/mL in PBS buffer (100 μL per well) overnight at 4° C. rhPRG4 is a full-length product produced by CHO-M cells (Lubris, Framingham, Mass., USA). Following washing with PBS+0.1% Tween 20, wells were blocked with 2% bovine serum albumin (BSA; 300 μL per well) for at least 2 hours at room temperature. CD44-IgG1Fc (R & D systems) or IgG1Fc (R & D systems), each at 1 μg/mL (100 μl per well), were added to the plate and incubated for 60 min at room temperature. Following washing with PBS+0.1% tween 20, anti-IgG1Fc-HRP (Sigma Aldrich) was added at 1:10,000 dilution (100 μL per well) and incubated for 60 min at room temp. Following washing with PBS+0.1% tween 20, the assay was developed using 1-step Turbo TMB ELISA reagent (ThermoScientific, USA) and absorbance was measured at 450 nm. The data represents an average of 4 independent assays, each with triplicate wells per group.
The concentration-dependent binding of rhPRG4, HMW HA and MMW HA to CD44 was performed by coating microtiter plates with 400, 200, 100, 20, 4, 2 and 0.1 μg/mL of the macromolecules. The assay was performed as described above. The absorbance values in the IgG1Fc wells were subtracted from the absorbance values in the CD44 IgG1Fc wells and the corrected CD44 IgG1Fc absorbance values were normalized to those of the 400 μg/mL rhPRG4 group and data was expressed as percentage binding to CD44. The concentration-dependent binding of rhPRG4, HMW HA and MMW HA to recombinant CD44 is depicted in FIG. 1B. […] The data represents an average of 4 independent assays, each with triplicate wells per group.
rhPRG4 was digested using sialidase A (Prozyme, USA), O-glycosidase (New England Biolabs, USA) or a combination of sialidase A and O-glycosidase for 16 hours at 37° C. In the sialidase A digestion, 12 μL of the enzyme (1U/200 μL) was added to rhPRG4 in a total reaction volume of 180 μL and a rhPRG4 final concentration of 300 μg/mL. In the O-glycosidase digestion, 4.8 μL of the enzyme (40million units/mL) was added to rhPRG4 in a total reaction volume of 180 μL and a rhPRG4 final concentration of 300 μg/mL under non-denaturing conditions. In the sialidase-A and O-glycosidase digestion, the enzymes were used in volumes identical to the ones stated above and incubated with rhPRG4 in a total reaction volume and final rhPRG4 concentration as stated above. The effect of sialidase-A and O-glycosidase digestions on rhPRG4 apparent molecular weight was determined by SDS-PAGE using 4-12% Bis-Tris gel (NuPage, life technologies, USA). A total of 20 μL of rhPRG4 or enzyme-digested rhPRG4 was run under reducing conditions ([…] for 60 min) followed by staining using Gelcode Blue Stain (Thermo Scientific, USA). Binding of enzymatically digested rhPRG4 to CD44 was compared to undigested rhPRG4 using the direct ELISA approach described above and using an rhPRG4 coating concentration of 30 μg/mL. Data represents the average of 4 independent experiments, each with triplicate wells per group.

MDA-MB-231 cells = experiment: In vitro trans-well invasion assay; format: cell-based, human; conditions: 100 pM TGFβ; 400 μg/mL LMWHA
Protocol: Overnight 0.2% FBS-containing DMEM incubated, i.e. serum-starved, MDA-MB-231 cells were used for the transwell invasion using polycarbonate filters (24-well insert, pore size 8 μm; BD Biosciences, Canada). Prior to addition of cells, each insert was placed within a well of a 24-well tissue culture plate and equilibrated with 0.5 mL serum-free DMEM, added both to the upper and lower chambers at 37° C. for 2 h. The equilibration media was then gently removed and upper chamber surface of the insert was coated with 50 μL of 3% Matrigel and allowed to solidify at 37° C. for 1 h. 1×10^5 serum-starved MDA-MB-231 cells were resuspended in 0.5 mL of serum-free DMEM and added to the upper Matrigel-coated chamber. 500 μL complete growth medium alone or containing specific reagents, as described in the respective figure descriptions, was added to the lower chambers. Cells were allowed to invade the matrix for 12 h at 37° C. after which non-adherent cells were removed by PBS washing of cell layers on the upper chamber three times. During the second wash a cotton tip applicator was used to gently scrape away the adherent cells on the upper surface of the membrane. Invading cells were fixed by immersing the transwell inserts in 100% methanol for 10 minutes at −20° C., followed by staining with 0.5% crystal violet dye (EMD Millipore, Canada) for 1 h at room temperature. Eight randomly chosen fields of each stained membrane were imaged at 10× objective of a DIC microscope (Olympus IX70) coupled to a digital camera. Cell numbers were obtained by counting the number of crystal violet stained cells in each field using a handheld counter. The average cell numbers for all images per treatment conditions were calculated and used for further statistical analysis. Each experiment was performed at least three independent times.

T1 sequence (P16070 with tags, fused parts or gaps limits assumed): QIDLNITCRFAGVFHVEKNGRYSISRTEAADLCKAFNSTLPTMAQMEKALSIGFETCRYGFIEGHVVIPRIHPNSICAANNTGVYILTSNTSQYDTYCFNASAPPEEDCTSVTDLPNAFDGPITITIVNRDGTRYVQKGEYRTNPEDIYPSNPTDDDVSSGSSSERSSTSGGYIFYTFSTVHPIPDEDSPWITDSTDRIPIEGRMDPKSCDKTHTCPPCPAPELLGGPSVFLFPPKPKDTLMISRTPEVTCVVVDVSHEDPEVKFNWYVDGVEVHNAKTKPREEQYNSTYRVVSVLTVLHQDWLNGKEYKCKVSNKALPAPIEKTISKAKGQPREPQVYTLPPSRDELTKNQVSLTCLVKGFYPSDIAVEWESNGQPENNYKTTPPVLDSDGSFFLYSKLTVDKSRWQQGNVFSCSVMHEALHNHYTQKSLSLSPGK

Cc1cc(=O)oc2cc(O)ccc12 [4-MU, 4-methylumbelliferone, reference compound]
TGFβ-induced invasive growth of organoids ([1]; 100 pM TGFβ, 8-day, KI 10 μM): suppressed TGFβ-induced invasive growth

NC(=O)c1ccc(-c2nc(-c3ccc4c(c3)OCO4)c(-c3ccccn3)[nH]2)cc1 [KI, SB431542, reference compound]
TGFβ-induced invasive growth of organoids ([1]; 100 pM TGFβ, 8-day, KI 10 μM): suppressed the TGFβ-induced invasive growth | LMWHA-induced invasive growth of organoids ([1]; LMWHA 10-400 μg/mL, 100 μg/mL rhPRG4, KI 10 μM): could not reverse the LMWHA effect

CNC(=O)c1cc(Oc2ccc(NC(=O)Nc3ccc(Cl)c(C(F)(F)F)c3)cc2)ccn1 [Sorafenib]
IC50 [2]: ~5 µM | capacity in inhibiting cells proliferation in CD44 silenced cells compared to control cells (CD44-shRNA HCC cells): significantly reduced

Cc1cccc(-c2nn3c(c2-c2ccnc4ccc(C(N)=O)cc24)CCC3)n1 [LY2157299, galunisertib]
expression of lubricin in comparison to controls (lubricin (PRG4) mRNA; LY2157299 alone, 48 hours): downregulated the expression of lubricin | effect on TGFβ-enhanced expression of lubricin (lubricin (PRG4) mRNA; TGFβ plus LY2157299, 48 hours, p<0.01): offset this effect

sialidase-A digested rhPRG4: rhPRG4 digested using sialidase A for 16 hours at 37° C.
percentage binding to CD44 of enzyme-digested rhPRG4 compared to untreated control (CD44-IgG1Fc): significant increase

CNC(=O)c1cc(Oc2ccc(NC(=O)Nc3ccc(Cl)c(C(F)(F)F)c3)c(F)c2)ccn1 [Regorafenib]
IC50 [2]: ~5 µM | capacity in inhibiting cells proliferation in CD44 silenced cells compared to control cells (CD44-shRNA HCC cells): significantly reduced

vitronectin: vitronectin (Sigma Aldrich), shares sequence homology with lubricin [reference compound]
450 nm absorbance in the CD44-IgG1Fc group vs the IgG1Fc group (CD44-IgG1Fc; wells coated at 400 μg/mL, CD44-IgG1Fc or IgG1Fc at 1 μg/mL): no significant difference

O-glycosidase digested rhPRG4: rhPRG4 digested using O-glycosidase for 16 hours at 37° C.
percentage binding to CD44 of enzyme-digested rhPRG4 compared to untreated control (CD44-IgG1Fc): significant increase

Sodium Hyaluronate [LMWHA, reference compound]
invasive growth of organoids, stimulus alone ([1]; 100 pM TGFβ, LMWHA 10, 100 or 400 μg/mL, 8-day): increase the proportion of invasive organoids | invasion of cells, stimulus alone vs untreated control (MDA-MB-231 cells): increased the proportion of invading cells

sialidase-A and O-glycosidase-digested rhPRG4: rhPRG4 digested using a combination of sialidase A and O-glycosidase
percentage binding to CD44 of enzyme-digested rhPRG4 compared to untreated control (CD44-IgG1Fc): significantly higher
